This passage reports melting point results from a melting point compilation (Tetko et al.; mined from patent text by program, amines drawn as free bases though some values may be those of a salt).

Each structure is given as a SMILES string.

A word on the melting point: it is the temperature of the solid-liquid transition. Take `CCOC(=O)c1cn(CC)c2c(F)c(C(C)=O)c(F)cc2c1=O`: the melting point was in the range of 129 to 130 °C.
As to `COC(=O)CC1c2ccccc2C(=O)N1c1ccc(Cl)cn1` (centres undefined), the melting point lay in the range of 110 to 111 °C.
Molecule `CCOC(=O)C(C#N)=CNc1csc(-c2ccccc2)c1` registered a melting point of 190 to 193 °C.
For `Cn1c(Nc2c(Cl)cccc2Cl)nc2ccc3c(c21)C(=O)NC(C)(C)N3` the value was 238 to 239 °C.
For `CCc1nc2c(cnn2CC)c(NC2CCOCC2)c1CNC(=O)c1cc(C)cc(C(=O)NCc2ccc(OC)c(-c3cccc(C=O)c3)c2)c1` the value was 117 to 119 °C.
Molecule `CCOC(=O)C(=CNc1ncnc2ccc([N+](=O)[O-])cc12)C(=O)OCC` registered a melting point of 228 to 230 °C.
The figure for `CC(C)c1cc(C(=O)CO[C@@H]2C[C@H](C)CC[C@H]2C(C)C)cc(C(C)C)c1O` is 83 to 84 °C; for `CCOC(=O)Nc1cc(Cl)nc(NC(=O)OCC)n1` it is 153 to 154 °C.
The figure for `CCOC(=O)c1cc2cccc(NC(=O)OC(C)(C)C)c2[nH]1` is 132 to 133 °C; for `CCCCCCCN(Cc1ccc(C(C)(C)C)cc1)C(Nc1ccc(Cl)cc1)=C1C(=O)COC1=O` it is 101 to 104 °C; for `COC1=C(OC)C(=O)c2c(cccc2S(=O)(=O)c2ccccc2)C1=O` it is 141 to 142 °C.
For `NS(=O)(=O)c1ccc2c(c1)CCO2` the value was 163 to 164 °C; for `O=C(O)c1ccc2c(c1)Sc1ccccc1NC2=O`, 362 to 364 °C.
Turning to `CC(C)(C)OC(=O)CN1C(=O)C(N)C1CCc1ccco1` (centres undefined), the melting point is 85 to 87 °C.
The molecule `CC(C)n1cnc2c(Nc3cccc(Cl)c3)nc(Cl)nc21` gave a melting point of 128 to 129 °C.
The figure for `O=C(c1cccnc1)c1cc(-c2ccncc2)c(N2CCOCC2)s1` is 124 °C; for `CCCc1nc(C(C)(C)O)c(C(=O)OC(C)OC(=O)OC(C)C)n1Cc1ccc(-c2ccccc2C(=O)O)cc1` (centres undefined) it is 94 to 96 °C; for `CCOC(=O)c1cccc(NC(=O)N2CCn3c(c(C(N)=O)c(Cl)c3-c3ccccc3)C2)c1` it is 126 to 128 °C.
Molecule `COCCOCCOc1ccc(C=O)cc1` registered a melting point of 44 to 47 °C.
The molecule `O=C(Nc1ccc(N2CCC(NC[C@H](O)COc3cccc4[nH]c5ccccc5c34)CC2)cc1)c1ccc2c(c1)OCO2` returned a melting point of 217 to 223 °C.
The figure for `CC(C)(C)c1cccc(CNC(c2ccccc2)C(NCc2cccc(C(C)(C)C)c2O)c2ccccc2)c1O` (centres undefined) is 143 to 144 °C.
The figure for `CC(C)(C)C(CSC(F)F)=NO` is 92 to 95 °C; for `CCOc1ccc(Oc2c([N+](=O)[O-])cc(C(=O)OC)cc2[N+](=O)[O-])cc1` it is 101 to 103 °C.
The figure for `CCCCOc1c(CNC(=O)OC(C)(C)C)n(CC(C)C)c(=O)c2ccc(O)cc12` is 185 to 186 °C; for `CCC(=O)N[C@@H]1CN(C(=O)c2nn(C)c3ccccc23)C[C@@H]1C` (relative stereo) it is 139 to 141 °C.
`CCOc1cnc2nc(SCc3ccccc3)nn2c1` had a melting point of 139 to 140 °C.
The molecule `CCN(Cc1cc(Cl)ccc1OCC1CC1)c1ccc(C(=O)O)nn1` displayed a melting point of 119 to 120 °C.
Molecule `NC(=O)c1ccc(OCCCCl)cc1` came in with a melting point of 142 to 143 °C.
For `CCc1ccc2ncc(C(=O)N(O)c3ccccc3)c(O)c2c1` the value was 218 °C.
The figure for `CCOC(=O)C1=C(COC(C)=O)Nc2nc(N)nc(N)c2C1c1cccc([N+](=O)[O-])c1` (centres undefined) is 219 °C; for `CC1OC(=O)N2c3ccc(O)cc3CCC12` (centres undefined) it is 258 to 259 °C; for `CCOc1nn(Cc2ccc(OCc3ccc(-c4ccccc4)cn3)cc2)cc1CCC(=O)O` it is 127 to 128 °C.
In turn, `COc1ccc2c(=O)[nH]c(=O)[nH]c2c1OC` had a melting point of 314 to 316 °C.
The figure for `Cc1cc(C)c2ncc(NC(=O)c3cc(C(C)(C)C)c(O)c(C(C)(C)C)c3)c(-c3ccccc3Cl)c2c1` is 127 to 129 °C; for `N#Cc1cc(N)ccc1N1CCC(c2ccccc2)CC1` it is 158 to 162 °C.
For `CC(C)(C)c1cn2cccc(C=O)c2n1` the value was 60 to 62 °C; for `COc1cc(C(C)=O)ccc1OCCCCCCl`, 57 to 58 °C; for `CCOC(=O)/C=C/c1cnc(-c2ccc(O)c(C34CC5CC(CC(C5)C3)C4)c2)cn1`, 212 to 215 °C.
For `Cc1oc(-c2ccco2)nc1COc1ccc(C#N)cn1` the value was 105 to 106 °C; for `CCOCCOCc1ccc(-c2ccc3c(c2)C=C(C(=O)Nc2ccc(CN(C)C4CCOCC4)cc2)CCS3(=O)=O)cc1`, 184 to 186 °C.
Molecule `CCCCCc1ccc(C(=O)CCCCC(=O)O)cc1` yielded a melting point of 84 to 86 °C.
The figure for `COc1c(N2CC3CCC3(NC(=O)OC(C)(C)C)C2)c(F)cc2c(=O)c(C(=O)O)cn(C3CC3)c12` (centres undefined) is 211 to 213 °C.
For `C=CC(O)CCCC(O)CCCC1(C)OCCO1` (centres undefined) the value was 52 to 54 °C; for `O=c1c2c(c3cccnc3n1-c1ccccc1)SCC2`, 277 to 279 °C.
The molecule `CC(=O)OC(c1cn2c(nc3ccccc32)s1)C1(Br)C(=O)N2C(C(=O)OCc3ccc([N+](=O)[O-])cc3)=CS[C@@H]21` (some centres undefined) returned a melting point of 78 °C.
For `O=C(Nc1ccccc1)C1=CCN(Cc2c[nH]c3ncccc23)CC1` the value was 217 to 220 °C; for `CCOC(=O)c1sc(NC(=O)c2cc(Br)ccc2O)nc1-c1ccccc1`, 197 to 199 °C.
For `NC1CN(c2cc3c(cc2F)c(=O)c(C(=O)O)cn3C2CC2)C1` the value was 246 to 247 °C; for `CCCCCc1ccc(C(=O)Oc2ccc(C#N)c(F)c2F)cc1`, 33 °C.
For `COc1ccc2c(c1)c(Cc1cc(=O)n(-c3ccc(Cl)c(Cl)c3)[nH]1)c(C)n2C(=O)c1ccc(Cl)cc1` the value was 123 to 125 °C.
In turn, `CNc1nc(SC)ncc1C=O` came in with a melting point of 98 to 100 °C.
The figure for `OCC1OC(n2cnc3cncnc32)CC1F` (centres undefined) is 89 °C; for `COC(=O)Nc1ccc2ccccc2c1-c1c(P(c2ccccc2)c2ccccc2)ccc2ccccc12` it is 92.1 °C; for `COc1ccccc1N1CCN([C@@H]2Cc3cccc(O)c3C[C@H]2O)CC1` (relative stereo) it is 199 to 201 °C.
The figure for `O=C(O)c1cnccc1Cc1cc(Cl)ccc1F` is 174 to 176 °C; for `NC(=O)C(F)(F)C(F)(F)C(F)(F)C(F)(F)C(F)(F)C(F)(F)C(F)(F)F` it is 136 to 137 °C.
For `O=c1nc(-c2ccc(C(F)(F)F)cc2)sc2ccccc12` the value was 122 to 123 °C.
As to `CCOCCOc1cccc2oc(-c3cccs3)cc(=O)c12`, the melting point is 111 to 113 °C.
In turn, `CCOC(=O)c1cn(-c2nonc2C)c2cc(F)c(F)cc2c1=O` gave a melting point of 178 to 180 °C.
The figure for `O=C(O)c1ccccc1OCCN1CCC(c2c[nH]c3ccccc23)CC1` is 230 °C; for `CCOC(=O)C1C(=O)Nc2ccccc2SC1c1ccc(C)cc1` (centres undefined) it is 185 °C; for `Cc1cc(C(F)(F)F)c2cccc(O)c2n1` it is 60 to 61 °C.
As for `CC(C)(C=O)C(O)(CCc1ccc(F)cc1)Cn1cncn1` (centres undefined), the melting point was 98 °C.
For `CCOCc1cccc2[nH]cc(C(COC)C(C(=O)OCC)[N+](=O)[O-])c12` (centres undefined) the value was 118 to 120 °C; for `CN(C)c1ccc(-c2cnc3[nH]cc(C(=O)C4(C)CCCCC4)c3n2)cc1`, 272 to 274 °C; for `O=C(Nc1cccc(CC(F)(F)F)c1)Nc1ccc2c(c1)COC2=O`, 279 to 282 °C.
`OCC1CNC2Cc3c[nH]c4cccc(c34)C2(O)C1` (centres undefined) displayed a melting point of 145 to 149 °C.
Molecule `COc1ccc([N+](=O)[O-])c2c1C(=O)CCC2` showed a melting point of 65 to 71 °C.
The figure for `OCC1CCC(O)C1O` (centres undefined) is 157 to 159 °C.
In turn, `c1ccc(-c2cc3ncnc(Nc4ccc5c(ccn5CCN5CCOCC5)c4)c3s2)cc1` had a melting point of 225 to 226 °C.
For `COc1cc(N)c(C(=O)O)c(OC)c1OC` the value was 88 to 91 °C; for `CCOC(=O)CCCCCCCSc1nc(-c2ccccc2)c(-c2ccccc2)[nH]1`, 77 to 79 °C.
Molecule `COCCc1ccc(OCC(O)C(C)(C)N)cc1` (centres undefined) returned a melting point of 120 to 122 °C.
The figure for `Cc1[nH]c(-c2ccccc2)nc1-c1cc(C(C)(C)C)c(O)c(C(C)(C)C)c1` is 298 to 300 °C; for `Cc1nn(C)c(OC(=O)C(Cl)=C(Cl)Cl)c1C(=O)c1ccc(Cl)cc1Cl` it is 141 to 142 °C; for `c1csc(-c2ccc(C34CCN(CC3)C4)cn2)n1` it is 127 to 129 °C.
The molecule `CCCN(Cc1ccco1)S(=O)(=O)c1ccc(OC)c2oc(C(C)=O)cc12` returned a melting point of 109 to 111 °C.
The figure for `O=C(CCCC(=O)N1C(=O)OC[C@@H]1Cc1ccccc1)c1ccc(F)cc1` is 114 °C; for `COC(=O)c1nc(-c2ccc(Cl)c(OC)c2F)cc(N)c1OC` it is 114 to 118 °C; for `CCOC(=O)c1cc(Cl)c(-n2nc(CC)c(C#N)c2N)c(Cl)c1` it is 173 to 175 °C.
In turn, `CCCCCCc1nccc2c(CC(=O)O)cccc12` returned a melting point of 152 °C.
The figure for `Cc1ccc(C(=O)Nc2ccc(CN3CCOCC3)c(C(F)(F)F)c2)cc1Br` is 147 to 151 °C.
The figure for `CC(C(=O)O)c1ccc2c(c1)C(c1ccccc1)=NCC(=O)N2` (centres undefined) is 252 to 255 °C.
For `O=[N+]([O-])c1ccc2c(c1)OC(CO)CO2` (centres undefined) the value was 132 to 135 °C.
Molecule `Cc1ccc(C(=O)c2ccc(Cl)cc2)cc1` displayed a melting point of 129 to 130 °C.
`N#Cc1ccc(CC23CCNN2C(=O)N(c2cc(Cl)nc(Cl)c2)C3=O)cc1` (centres undefined) displayed a melting point of 187 °C.
The figure for `CN(C)Cc1cc2ccc(-c3nnc(CSCCOc4ccccc4)o3)cc2n1S(C)(=O)=O` is 127 to 130 °C.
In turn, `O=C(c1ccc(Br)cc1)N(C1CCCCC1)C1CCCC1` showed a melting point of 110 to 112 °C.
The figure for `COc1cc(Nc2nccc(-c3ccc(N4CCN(CCN)CC4)nc3)n2)cc(OC)c1OC` is 88 to 89 °C.
